Source: patent publication US20250075041A1, “COMPOSITIONS FOR SALTWATER-STABLE HYDROGEL ADHESIVES AND METHODS OF USE THEREOF” (Washington University, priority 2023, published 2025)

Test: Solubility of copolymers and monomer
Type: physicochemical

Nb-TEG-ZnTPP [compound 22]
solubility in H2O: not soluble in H2O
